Laboratory results from patent US20020010210A1, “PHARMACEUTICAL PREPARATION AND METHOD FOR TREATING CANCER” (priority 1997, published 2002).
Counter-ions that a name gives are not always drawn.

What was measured:
Format in all cases: in vivo
[1] = test system: spontaneous breast cancer rat cells (SST-2); test: Lung metastasis of implanted SST-2 cells in SHR rats (Example 3); details: 35 days after implantation; for Number of Metastasis Colonies (average), Peroral Administration: 1 mg/rat perorally from day of implantation to day 34; for Number of Metastasis Colonies (average), Subcutaneous Injection: 1 mg/rat subcutaneous injection from day of implantation to day 34
Procedure: 1×100,000 spontaneous breast cancer rat cells (SST-2) were subcutaneously implanted into the back of a rat (SHR rat) (5 rats per group) suffering from spontaneous hypertension. After 35 days, the rats were sacrificed, and the lung weight and the number of colonies formed were measured to examine the degree of metastasis of SST-2 to the lung. The compounds shown in Tables 3 and 4 each was administered perorally or through subcutaneous injection in a dose of 1 mg/rat over the period from the day of implantation to 34 days after implantation. The number of colonies formed was compared with that in the control group not subjected to any treatment, to examine metastasis to the lung.

[2] = test system: spontaneous breast cancer rat cells (SST-2); test: Lung metastasis of SST-2 in SHR rats, ascorbic acid derivative combined with known anticancer agent (Example 4)
Procedure: 1×100,000 spontaneous breast cancer rat cells (SST-2) were subcutaneously implanted into the back of a rat (SHR rat) (5 rats per group) suffering from spontaneous hypertension. After 35 days, the rats were sacrificed, and the number of colonies formed were measured to examine the degree of metastasis of SST-2 to the lung.
The ascorbic acid derivatives used were L-ascorbic acid-2-phosphate-6-palmitate, L-ascorbic acid-6-benzoate (reference compound) and magnesium L-ascorbic acid-2-phosphate.
Each of the groups treated with an ascorbic acid derivative was subjected to a test of administering the ascorbic acid derivative alone and to a test of administering the ascorbic acid derivative in combination with a known anticancer agent as shown in Table 4. Furthermore, tests of administering the anticancer agents alone were conducted. Over the period of from 7 days prior to implantation to 34 days after the implantation, the ascorbic acid derivative was injected through a vein in the tail region at a dose of 1 mg/1 day/rat. Each of the known anticancer agents was perorally administered in a minimum dose by reference to the concentration for a single use case described in the publication, Tyakuhin Yoran (Medical Product Handbook), 4th Edition, pp. 1474-1509, Yakugyo Jiho-Sha (1989), and the number of colonies formed after metastasis was compared.

[3] = test system: spontaneous breast cancer rat cells (SST-2); test: as above; remark: listed apart in the source
[4] = ascorbic acid derivative 1 mg/1 day/rat tail vein, day -7 to day 34, known anticancer agent perorally in minimum dose, colonies after 35 days

| Molecule | Number of Metastasis Colonies (average), Peroral Administration [1] | Number of Metastasis Colonies (average), Subcutaneous Injection [1] | Cancer metastasis inhibitory effect of combination with L-Ascorbic Acid-2-Phosphate-6-Palmitate versus each agent alone [2, 4] | Cancer metastasis inhibitory effect of combination with L-Ascorbic Acid-2-Phosphate-6-Benzoate versus each agent alone [3, 4] | Cancer metastasis inhibitory effect of combination with L-Ascorbic Acid-6-Palmitate versus each agent alone [3, 4] | Cancer metastasis inhibitory effect of combination with L-Ascorbic Acid-2-Phosphate-6-Palmitate versus each agent alone ([2]; rat, in vivo) | Cancer metastasis inhibitory effect of combination with L-Ascorbic Acid-2-Phosphate-6-Benzoate versus each agent alone ([3]; rat, in vivo) | Cancer metastasis inhibitory effect of combination with L-Ascorbic Acid-6-Palmitate versus each agent alone ([3]; rat, in vivo) |
| --- | --- | --- | --- | --- | --- | --- | --- | --- |
| O=C1O[C@H]([C@@H](O)CO)C(O)=C1O [L-Ascorbic acid] | 90.8 | 88.8 |  |  |  |  |  |  |
| CC(C)(C)C(=O)OC[C@H](O)[C@H]1OC(=O)C(O)=C1OP(=O)(O)O [6-O-Pivaloyl-L-ascorbic acid-3-phosphate] | 89.6 | 86.2 |  |  |  |  |  |  |
| O=C1O[C@H]([C@@H](O)CO)C(O)=C1OS(=O)(=O)[O-].[Na+] [Sodium L-ascorbic acid-2-sulfate] | 86.2 | 85.4 |  |  |  |  |  |  |
| O=C1O[C@H]([C@@H](O)CO)C(O)=C1OP(=O)([O-])[O-].[Mg+2] [Magnesium L-ascorbic acid-2-phosphate] | 89.4 | 86.8 |  |  |  |  |  |  |
| CCCCCCCCCCCCCCCC(=O)OC[C@H](O)[C@H]1OC(=O)C(O)=C1O [L-Ascorbic acid-6-palmitate] | 85.4 | 83.0 |  |  |  |  |  |  |
| Nc1ccn([C@@H]2O[C@H](CO)[C@@H](O)[C@@H]2O)c(=O)n1 [cytarabine] |  |  | + | + | − |  |  |  |
| CCCCCCNC(=O)n1cc(F)c(=O)[nH]c1=O [carmofur] |  |  | + | + | − |  |  |  |
| CNNCc1ccc(C(=O)NC(C)C)cc1 [procarbazine hydrochloride] |  |  | + | + | − |  |  |  |
| neocarzinostatin |  |  | + | + | − |  |  |  |
| N.N.[Cl][Pt][Cl] [cisplatin] |  |  | + | + | − |  |  |  |
| PLEOMYCIN sulfate |  |  |  |  |  | + | + | − |
| lentinan |  |  | + | + | − |  |  |  |
| CC[C@]1(O)C[C@H]2CN(CCc3c([nH]c4ccccc34)[C@@](C(=O)OC)(c3cc4c(cc3OC)N(C=O)[C@H]3[C@@](O)(C(=O)OC)[C@H](OC(C)=O)[C@]5(CC)C=CCN6CC[C@]43[C@@H]65)C2)C1 [vincristine sulfate] |  |  | + | + | − |  |  |  |
| S=c1nc[nH]c2nc[nH]c12 [meercaptopurine] |  |  |  |  |  | + | + | − |
| vebromycin sulfate |  |  |  |  |  | + | + | − |
| Platelet Factor-4 |  |  |  |  |  | + | + | − |
| CO[C@@]12[C@H](COC(N)=O)C3=C(C(=O)C(C)=C(N)C3=O)N1C[C@@H]1N[C@@H]12 [mitomycin C] |  |  |  |  |  | + | + | − |
| L-asparginase |  |  |  |  |  | + | + | − |
| O=c1[nH]cc(F)c(=O)[nH]1 [fluorouracil] |  |  | + | + | − |  |  |  |
| CS(=O)(=O)OCCCCOS(C)(=O)=O [bulsfan] |  |  |  |  |  | + | ± | − |
| CC[C@]1(O)C[C@@H]2CN(CCc3c([nH]c4ccccc34)[C@@](C(=O)OC)(c3cc4c(cc3OC)N(C)[C@H]3[C@@](O)(C(=O)OC)[C@H](OC(C)=O)[C@]5(CC)C=CCN6CC[C@]43[C@@H]65)C2)C1 [vinblastine sulfate] |  |  | + | + | − |  |  |  |
| O=P1(NCCCl)OCCCN1CCCl (stereo not shown) [ifosfamide] |  |  |  |  |  | + | + | − |
| CCCCCCCCCCCCCCCCCCCCCC(=O)Nc1ccn([C@@H]2O[C@H](CO)[C@@H](O)[C@@H]2O)c(=O)n1 [enocitabine] |  |  | + | ± | − |  |  |  |
| peptidoglycan |  |  | + | + | − |  |  |  |
| N=c1ccn2c(n1)O[C@H]1[C@H](O)[C@@H](CO)O[C@H]12 [ANCITABINE hydrochloride] |  |  | + | + | − |  |  |  |
| CC[C@@]1(O)C[C@H](O[C@H]2C[C@H](N(C)C)[C@H](O[C@H]3C[C@H](O)[C@H](O[C@H]4CCC(=O)[C@H](C)O4)[C@H](C)O3)[C@H](C)O2)c2c(cc3c(c2O)C(=O)c2c(O)cccc2C3=O)[C@H]1C(=O)OC [aclarubicin hydrochloride] |  |  |  |  |  | + | + | − |
